Tests used:
Assay in all cases: relative viability (nuclei count vs DMSO), 5 days (fraction); higher = more cells survive
[1] = compound: CC1=C(CC(=O)O)c2cc(F)ccc2/C1=C\c1ccc([S+](C)[O-])cc1 [Sulindac] + Cc1nc(NC(=O)N2CCC[C@H]2C(N)=O)sc1-c1ccnc(C(C)(C)C(F)(F)F)c1 [Alpelisib] (partner 2 µM)
In short: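 After 5 days of treatment, lung cancer cells in 1536-well plates were fixed and stained in a single step (final 0.05% Triton X-100, 1% formaldehyde, 1 ug/ml Hoechst) and their nuclei counted on 4× images. Treatment had been applied by pin tool the day after seeding as one drug alone or as a fixed anchor-drug dose with five library-drug doses (not always all listed) in √10 steps. Relative viability is the nuclei count of treated wells divided by that of vehicle wells, and values are medians of duplicate plates.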

[2] = compound: O=c1[nH]cc(F)c(=O)[nH]1 [5-Fluorouracil]
In short: (§1)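 Only plates meeting two conditions passed: control CV below 25% and at least one doubling. Lung cancer cell lines, kept overnight at 37 °C in 1536-well plates, were pinned with five library-drug doses (not always all listed) √10 apart on vehicle-anchored plates and grown 5 days without medium change. A one-step fix, permeabilisation and Hoechst stain preceded 4× imaging and MetaXpress nuclear counting. Viability equals treated-well nuclei divided by vehicle-well nuclei, as the median over plates.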

[3] = compound: CC1=C(CC(=O)O)c2cc(F)ccc2/C1=C\c1ccc([S+](C)[O-])cc1 [Sulindac]
In short: as §1

[4] = compound: CN[C@@H]1C[C@H]2O[C@@](C)([C@@H]1OC)n1c3ccccc3c3c4c(c5c6ccccc6n2c5c31)C(=O)NC4 [Staurosporine]
In short: as §1

| Cell Line | relative viability ([1]; first compound 0.08 µM) | relative viability ([1]; first compound 0.253 µM) | relative viability ([1]; first compound 0.8 µM) | relative viability ([1]; first compound 2.53 µM) | relative viability ([1]; first compound 8 µM) | relative viability ([2]; 0.02 µM) | relative viability ([2]; 0.2 µM) | relative viability ([2]; 0.6325 µM) | relative viability ([2]; 2 µM) | relative viability ([3]; 0.08 µM) | relative viability ([3]; 0.253 µM) | relative viability ([3]; 0.8 µM) | relative viability ([3]; 2.53 µM) | relative viability ([3]; 8 µM) | relative viability ([4]; 0.005 µM) | relative viability ([4]; 0.05 µM) | relative viability ([4]; 0.1581 µM) | relative viability ([4]; 0.5 µM) | relative viability ([4]; 0.01581 µM) |
| --- | --- | --- | --- | --- | --- | --- | --- | --- | --- | --- | --- | --- | --- | --- | --- | --- | --- | --- | --- |
| NCI-H2170 | 1.03 | 0.904 | 0.613 | 0.835 | 0.912 | 1.02 | 0.88 | 0.529 | 0.464 | 1.13 | 1.03 | 0.884 | 1.06 | 0.991 | 1.07 | 0.766 | 0.384 | 0.161 | – |
| HCC-366 | 0.527 | 0.471 | 0.407 | 0.527 | 0.622 | 1.03 | 1.02 | 0.687 | 0.138 | 1.2 | 1.08 | 0.757 | 1 | 1.08 | 1.05 | 0.911 | 0.15 | 0.0345 | – |
| NCI-H2405 | 0.725 | 0.794 | 0.713 | 0.796 | 0.917 | 1.01 | 1.17 | 0.956 | 0.75 | 1.05 | 1.09 | 0.958 | 0.944 | 1.16 | – | 0.158 | 0.13 | 0.118 | 0.209 |
| COR-L 105 | 0.826 | 0.818 | 0.673 | 0.949 | 1.29 | 0.896 | 0.927 | 0.819 | 0.5 | 1.03 | 0.894 | 0.891 | 0.91 | 1.25 | 0.636 | 0.357 | 0.274 | 0.193 | 0.295 |
| 201T | 0.967 | 1.04 | 1.02 | 0.999 | 1.02 | 0.997 | 0.774 | 0.345 | 0.335 | 1.02 | 1 | 1 | 0.977 | 1.09 | 0.968 | 0.854 | 0.563 | 0.279 | 0.564 |
| NCI-H2228 | 0.67 | 0.862 | 0.725 | 0.825 | 0.753 | 0.976 | 1.02 | 0.75 | 0.458 | 1.2 | 1.08 | 0.916 | 1.03 | 1.18 | 0.735 | 0.407 | 0.145 | 0.107 | 0.471 |
| LC-2-ad | 0.886 | 0.913 | 0.86 | 0.917 | 0.974 | 0.987 | 0.946 | 0.53 | 0.298 | 1.19 | 1.03 | 0.845 | 0.978 | 1.1 | 0.929 | 0.381 | 0.17 | 0.129 | 0.256 |
| NCI-H2087 | 1.16 | 1 | 1.23 | 1.17 | 1.04 | 0.992 | 1.02 | 0.688 | 0.571 | 1.05 | 1.13 | 0.954 | 1.05 | 1.28 | 0.927 | 0.243 | 0.0918 | 0.0911 | 0.561 |

From the supplement of paper PMC10307832
